Results published in patent US20080194585A1, “Fungicidal Pyrazine Derivatives” (priority 2005, published 2008).
Marks after values point to notes of the source that are not given here.

Legend:
[1] = test system: Plasmopara viticola; assay: Test D: grape downy mildew, spray after inoculation of grape seedlings; format: in vivo
Description: Upon removal, disease ratings were made. […] A dash (-) indicates no test results.

[2] = test system: Phytophthora infestans; assay: whole plant or invertebrate; format: in vivo
[3] = test system: Septoria tritici; assay: Test J: wheat leaf blotch, preventive spray on wheat seedlings; format: in vivo
Description: A dash (-) indicates no test results.

[4] = test system: Puccinia recondita f. sp. tritici; assay: Test K: wheat leaf rust, preventive spray on wheat seedlings
[5] = test system: Botrytis cinerea; assay: Test E: tomato botrytis, preventive spray on tomato seedlings
[6] = test system: Septoria nodorum; assay: Test H: wheat glum blotch, preventive spray on wheat seedlings
Description: (the causal agent of wheat glum blotch) and incubated in a saturated atmosphere at 20° C. for 48 h, and then moved to a growth chamber at 22° C. for 5 days, after which disease ratings were made.

[7] = test system: Erysiphe graminis f. sp. tritici; assay: Test L: wheat powdery mildew, preventive spray on wheat seedlings
[8] = test system: Sclerotinia sclerotiorum; assay: Test C: cucumber white mold, preventive spray on cucumber seedlings
[9] = test system: Pythium aphanidermatum; assay: Test A: bluegrass pythium blight, preventive spray on bluegrass seedlings
[10] = test system: Rhizoctonia oryzae; assay: Test G: turf brown patch, preventive spray on creeping bent grass seedlings
Description: (the causal agent of turf brown patch) and incubated in a saturated atmosphere at 27° C. for 24 h, and then moved to a growth chamber at 27° C. for 5 days, after which disease ratings were made.

[11] = test system: Colletotrichum orbiculare; assay: Test B: cucumber Colletotrichum anthracnose, preventive spray on cucumber seedlings

Compound | Test D disease control rating ([1]; 40 ppm (*)) | Test F disease control rating ([2]; 40 ppm (*)) | Test J disease control rating ([3]; 40 ppm (*)) | Test K disease control rating ([4]; 40 ppm (*)) | Test E disease control rating ([5]; 40 ppm (*)) | Test H disease control rating ([6]; 40 ppm (*)) | Test L disease control rating ([7]; 40 ppm (*)) | Test C disease control rating ([8]; 40 ppm (*)) | Test A disease control rating ([9]; 40 ppm (*)) | Test G disease control rating ([10]; 40 ppm (*)) | Test B disease control rating ([11]; 40 ppm (*)) | Test D disease control rating ([1]; 200 ppm) [%] | Test F disease control rating ([2]; 200 ppm) [%] | Test C disease control rating ([8]; 200 ppm) [%] | Test A disease control rating ([9]; 200 ppm) [%] | also measured
CCCCn1c(-c2c(F)cc(F)cc2F)c(Cl)nc(-c2ccccn2)c1=O [compound 240] | 0* % | 0* % | 93* % | 67* % | 100* % | 78* % | 98* % | 0* % | 0* % | 0* % | 9* % |  |  |  |  | 
CC(C)Cn1c(-c2c(F)cccc2F)c(Cl)nc(-c2nccs2)c1=O [compound 101] |  |  | 53* % | 0* % | 0* % | 0* % | 0* % |  |  | 0* % | 0* % | 15 | 0 | 0 | 0 | 
Cc1ccc(-c2nc(Cl)c(-c3c(F)cccc3F)n(CC(C)C)c2=O)nc1 [Compound 209, 5-Chloro-6-(2,6-difluorophenyl)-1-(2-methylpropyl)-3-(5-methyl-2-pyridinyl)-2(1H)-pyrazinone] |  |  |  |  |  |  |  |  |  |  |  |  |  |  |  | pest or weed control at 200 ppm ([1]; Plasmopara viticola, 168 h, 200 ppm, read-out: Test D disease control rating): 8%; pest or weed control at 200 ppm ([2]; Phytophthora infestans, in Solanum lycopersicum, topical, 144 h, read-out: Test F disease control rating): 0%; pest or weed control at 200 ppm ([3]; Zymoseptoria tritici, 528 h, 200 ppm, read-out: Test J disease control rating): 96%; pest or weed control at 200 ppm ([4]; Puccinia recondita, in Triticum aestivum, 192 h, read-out: Test K disease control rating): 85%; pest or weed control at 200 ppm ([5]; Botrytis cinerea, in Solanum lycopersicum, topical, 72 h, read-out: Test E disease control rating): 99%; pest or weed control at 200 ppm ([6]; Parastagonospora nodorum, in Triticum aestivum, topical, 168 h, read-out: Test H disease control rating, 200 ppm): 0%; pest or weed control at 200 ppm ([7]; Blumeria graminis, in Triticum aestivum, 168 h, read-out: Test L disease control rating, 200 ppm): 0%; pest or weed control at 200 ppm ([8]; Sclerotinia sclerotiorum, in Cucumis sativus, 168 h, read-out: Test C disease control rating, 200 ppm): 0%; pest or weed control at 200 ppm ([9]; Pythium aphanidermatum, 120 h, read-out: Test A disease control rating): 56%; pest or weed control at 200 ppm ([10]; Waitea circinata, in Agrostis stolonifera, topical, 144 h, read-out: Test G disease control rating, 200 ppm): 34%; pest or weed control at 200 ppm ([11]; Colletotrichum orbiculare, in Cucumis sativus, 144 h, read-out: Test B disease control rating, 200 ppm): 54%
COCCn1c(-c2c(F)cccc2F)c(Cl)nc(-n2cccn2)c1=O [compound 95] |  |  |  |  |  |  |  |  |  |  |  | 92 | 0 | 0 | 0 | Test J disease control rating ([3]; 200 ppm): 95%; Test K disease control rating ([4]; 200 ppm): 94%; Test E disease control rating ([5]; 200 ppm): 99%; Test H disease control rating ([6]; 200 ppm): 100%; Test L disease control rating ([7]; 200 ppm): 0%; Test G disease control rating ([10]; 200 ppm): 68%; Test B disease control rating ([11]; 200 ppm): 0%
CCCCn1c(-c2c(F)cc(F)cc2F)c(Cl)nc(N2CCC=N2)c1=O [compound 226] | 0* % | 0* % | 100* % | 82* % | 0* % | 95* % | 46* % | 0* % | 0* % | 0* % | 0* % |  |  |  |  | 
CC1CCCCC1n1c(-c2c(F)cccc2F)c(Cl)nc(-n2cccn2)c1=O (stereo not drawn) [compound 224] | 0* % | 0* % | 100* % | 94* % | 100* % | 99* % | 83* % | 0* % | 0* % | 92* % | 66* % |  |  |  |  | 
CC(C)(C)CCn1c(-c2c(F)cccc2F)c(Cl)nc(-n2cccn2)c1=O [compound 182] |  |  |  |  |  |  |  |  |  |  |  | 0 | 0 | 0 | 0 | Test J disease control rating ([3]; 200 ppm): 100%; Test K disease control rating ([4]; 200 ppm): 85%; Test E disease control rating ([5]; 200 ppm): 91%; Test H disease control rating ([6]; 200 ppm): 0%; Test L disease control rating ([7]; 200 ppm): 85%; Test G disease control rating ([10]; 200 ppm): 31%; Test B disease control rating ([11]; 200 ppm): 0%
CC(C)Cn1c(-c2ccccc2F)c(Cl)nc(-n2cccn2)c1=O [compound 174] | 15* % | 0* % | 100* % | 99* % | 100* % | 99* % | 98* % | 0* % | 0* % | 62* % | 0* % |  |  |  |  | 
CC(C)Cn1c(-c2ccccc2C(F)(F)F)c(Cl)nc(-n2cncn2)c1=O [compound 140] |  |  |  |  |  |  |  |  |  |  |  | 12 | 0 | 83 | 0 | Test J disease control rating ([3]; 200 ppm): 41%; Test K disease control rating ([4]; 200 ppm): 0%; Test E disease control rating ([5]; 200 ppm): 99%; Test H disease control rating ([6]; 200 ppm): 0%; Test L disease control rating ([7]; 200 ppm): 0%; Test G disease control rating ([10]; 200 ppm): 34%; Test B disease control rating ([11]; 200 ppm): 0%
CCCCn1c(-c2c(F)cc(F)cc2F)c(Cl)nc(-n2ccc(C)n2)c1=O [compound 228] | 77* % | 0* % | 99* % | 99* % | 100* % | 100* % | 99* % | 0* % | 0* % | 99* % | 98* % |  |  |  |  | 
COc1cccc(-c2c(Cl)nc(-n3cncn3)c(=O)n2CC(C)C)c1 [compound 245] | 0* % | 0* % | 46* % | 0* % | 0* % | 0* % | 0* % | 0* % | 0* % | 0* % | 0* % |  |  |  |  | 
CC(CO)n1c(-c2c(F)cccc2F)c(Cl)nc(-n2cccn2)c1=O (stereo not drawn) [compound 213] | 32* % | 0* % | 0* % | 92* % | 41* % | 0* % | 0* % | 0* % | 0* % | 0* % | 0* % |  |  |  |  | 
